Source: patent US9113629B2, “4-amino-6-(4-substituted-phenyl)-picolinates and 6-amino-2-(4-substituted-phenyl)-pyrimidine-4-carboxylates and their use as herbicides” (DOW AGROSCIENCES LLC, priority 2013, dated 2015)
Where two headings read alike, the source gives them in different places.

What was measured:
[1] = system: Key Broadleaf Weed and Crop Species; assay: Post-emergent Test II herbicidal activity (Table 5); format: in vivo; conditions: post-emergence, 336 h, post-emergent, 14 days after application; for pest or weed control at 70 g/ha: 70 g ai/ha; for pest or weed control at 140 g/ha: 140 g ai/ha
How it was run: (§1)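 Test species were raised 7–21 d under greenhouse conditions until reaching the first or second true leaf, sprayed with formulated compound at 187 L/ha, and kept subirrigated to avoid wash-off. Fourteen days later, damage was rated visually on a 0–100% scale against untreated plants.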

[2] = system: Key Grass and Sedge Weeds as well as Grass Crops; assay: Post-emergent Test II herbicidal activity (Table 6); format: in vivo; conditions: post-emergence, 336 h; for pest or weed control at 70 g/ha: application rate 70 g ai/ha; for pest or weed control at 140 g/ha: application rate 140 g ai/ha
How it was run: as §1

[3] = ABUTH: velvetleaf (Abutilon theophrasti), read-out: Visual Growth Reduction (%) 14 Days After Application ABUTH
[4] = AMARE: redroot pigweed (Amaranthus retroflexus), read-out: Visual Growth Reduction (%) 14 Days After Application AMARE
[5] = BRSNN: oilseed-rape, canola (Brassica napus), read-out: Visual Growth Reduction (%) 14 Days After Application BRSNN
[6] = CHEAL: lambsquarters (Chenopodium album), read-out: Visual Growth Reduction (%) 14 Days After Application CHEAL
[7] = EPHHL: wild poinsettia (Euphorbia heterophylla), read-out: Visual Growth Reduction (%) 14 Days After Application EPHHL
[8] = HELAN: sunflower (Helianthus annuus), read-out: Visual Growth Reduction (%) 14 Days After Application HELAN
[9] = VIOTR: wild pansy (Viola tricolor), read-out: Visual Growth Reduction (%) 14 Days After Application VIOTR
[10] = Triticum aestivum, TRZSS (wheat), read-out: Visual Growth Reduction (%) 14 Days After Application, TRZSS
[11] = CYPES: yellow nutsedge (Cyperus esculentus), read-out: Visual Growth Reduction (%) 14 Days After Application, CYPES
[12] = DIGSA: crabgrass (Digitaria sanguinalis), read-out: Visual Growth Reduction (%) 14 Days After Application, DIGSA
[13] = ECHCG: barnyardgrass (Echinochloa crus-galli), read-out: Visual Growth Reduction (%) 14 Days After Application, ECHCG
[14] = ORYSA: rice (Oryza sativa), read-out: Visual Growth Reduction (%) 14 Days After Application, ORYSA
[15] = SETFA: giant foxtail (Setaria faberi), read-out: Visual Growth Reduction (%) 14 Days After Application, SETFA
[16] = SORVU: grain sorghum (Sorghum vulgare), read-out: Visual Growth Reduction (%) 14 Days After Application, SORVU
[17] = ZEAMX: maize, corn (Zea mays), read-out: Visual Growth Reduction (%) 14 Days After Application, ZEAMX

Row | Structure (SMILES) | pest or weed control at 70 g/ha [1, 3] [%] | pest or weed control at 140 g/ha [1, 3] [%] | pest or weed control at 70 g/ha [1, 4] [%] | pest or weed control at 140 g/ha [1, 4] [%] | pest or weed control at 70 g/ha [1, 5] [%] | pest or weed control at 140 g/ha [1, 5] [%] | pest or weed control at 70 g/ha [1, 6] [%] | pest or weed control at 140 g/ha [1, 6] [%] | pest or weed control at 70 g/ha [1, 7] [%] | pest or weed control at 140 g/ha [1, 7] [%] | pest or weed control at 70 g/ha [1, 8] [%] | pest or weed control at 140 g/ha [1, 8] [%] | pest or weed control at 70 g/ha [1, 9] [%] | pest or weed control at 140 g/ha [1, 9] [%] | pest or weed control at 70 g/ha [2, 10] [%] | pest or weed control at 140 g/ha [2, 10] [%] | pest or weed control at 70 g/ha [2, 11] [%] | pest or weed control at 140 g/ha [2, 11] [%] | pest or weed control at 70 g/ha [2, 12] [%] | pest or weed control at 140 g/ha [2, 12] [%] | further results
1 | C=Cc1c(C(=O)O)nc(-c2ccc(I)cc2)c(F)c1N [Compound 17] | 95 to 100 | 95 to 100 | 95 to 100 | 95 to 100 | 95 to 100 | 95 to 100 | 85 to 94 | 95 to 100 | 95 to 100 | 95 to 100 | 85 to 94 | 95 to 100 | 0 to 29 | 0 to 29 | 30 to 44 | 45 to 59 | 95 to 100 | 95 to 100 | 0 to 29 | 0 to 29 | pest or weed control at 70 g/ha [2, 13]: 75 to 84%; pest or weed control at 140 g/ha [2, 13]: 85 to 94%; pest or weed control at 70 g/ha [2, 14]: 60 to 74%; pest or weed control at 140 g/ha [2, 14]: 85 to 94%; pest or weed control at 70 g/ha [2, 15]: 0 to 29%; pest or weed control at 140 g/ha [2, 15]: 45 to 59%; pest or weed control at 70 g/ha [2, 16]: 85 to 94%; pest or weed control at 140 g/ha [2, 16]: 95 to 100%; pest or weed control at 70 g/ha [2, 17]: 60 to 74%; pest or weed control at 140 g/ha [2, 17]: 75 to 84%
2 | Nc1c(F)c(-c2cc(F)c(Br)cc2F)nc(C(=O)O)c1Cl [Compound 42, 4-amino-6-(4-bromo-2,5-difluorophenyl)-3-chloro-5-fluoropicolinic acid] | 85 to 94 | 95 to 100 | 95 to 100 | 95 to 100 | 95 to 100 | 95 to 100 | 95 to 100 | 95 to 100 | 95 to 100 | 95 to 100 | 95 to 100 | 95 to 100 | 95 to 100 | 95 to 100 | 60 to 74 | 75 to 84 | 95 to 100 | 95 to 100 | 75 to 84 | 85 to 94 | pest or weed control at 70 g/ha [2, 13]: 95 to 100%; pest or weed control at 140 g/ha [2, 13]: 95 to 100%; pest or weed control at 70 g/ha [2, 14]: 30 to 44%; pest or weed control at 140 g/ha [2, 14]: 30 to 44%; pest or weed control at 70 g/ha [2, 15]: 95 to 100%; pest or weed control at 140 g/ha [2, 15]: 95 to 100%; pest or weed control at 70 g/ha [2, 16]: 95 to 100%; pest or weed control at 140 g/ha [2, 16]: 95 to 100%; pest or weed control at 70 g/ha [2, 17]: 75 to 84%; pest or weed control at 140 g/ha [2, 17]: 60 to 74%
